Results published in patent US10344054B2, “Angiotensin-1-receptor antagonists” (Ferring B.V., priority 2016, dated 2019).
Starred links: 1 amine or outer side, 2 acyl side, 3 side chain; linkers in the order of their positions; H or OH if unused. Non-standard residues stand in square brackets, D forms with d. Residues, ends and D or L forms follow the SMILES beside them. X1 = O=C(CN(C[C@H](O)[C@@H](O)[C@H](O)[C@H](O)CO)[*:1])[*:2]; dPhe(2-Ph) = N[C@H](Cc1ccccc1-c1ccccc1)C(=O)O; dPhe(2-Me) = Cc1ccccc1C[C@@H](N)C(=O)O; Gly(cPent) = N[C@H](C(=O)O)C1CCCC1; Chg = N[C@H](C(=O)O)C1CCCCC1

Legend:
[1] = target: T1, hAT1R (Homo sapiens, UniProt P30556); assay: FLIPR calcium flux assay, Part II: antagonist activity against Angiotensin II; type: cell-based; details: for Emax: read-out: hAT1R Antagonist Efficacy Antag (%) Ave; for IC50: read-out: hAT1R Antagonist IC50 Ave; for hAT1R Antagonist Efficacy Antag (%) Ave: Angiotensin II 10 nM final concentration
T1 sequence (P30556 1-359): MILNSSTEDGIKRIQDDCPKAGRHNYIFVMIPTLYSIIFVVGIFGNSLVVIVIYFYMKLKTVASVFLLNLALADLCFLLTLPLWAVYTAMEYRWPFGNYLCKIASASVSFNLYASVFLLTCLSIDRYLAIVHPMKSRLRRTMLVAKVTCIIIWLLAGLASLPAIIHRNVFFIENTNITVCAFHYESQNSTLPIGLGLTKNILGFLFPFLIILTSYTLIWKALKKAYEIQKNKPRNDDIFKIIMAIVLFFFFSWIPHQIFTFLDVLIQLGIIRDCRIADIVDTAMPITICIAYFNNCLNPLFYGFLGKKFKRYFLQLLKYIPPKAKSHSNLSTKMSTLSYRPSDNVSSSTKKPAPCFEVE
Protocol: (§1) AT1 receptor (AT1R) agonists increase intracellular flux of calcium ions. AT1R antagonists can reduce the agonist effect. […] Compounds were first tested for agonism (Part I) followed by addition of the AT1R agonist angiotensin II to test for antagonist activity (Part II). This assay used a stable hAT1R expressing cell line (ChanTest hAT1R; ChanTest Corp A628). Intracellular flux of calcium in response to agonist was measured through real-time measurement of fluorescence induced through the interaction of Ca2+ (released from intracellular stores) and calcium-sensitive dye. In Part I, cells were exposed to varying concentrations of test compounds and immediately measured for agonist activity (EC50 and Efficacy).
(§2) ChanTest hAT1R stable cells were maintained in Ham's F12 containing 10% (v/v) heat inactivated fetal bovine serum (FBS-HI), 4 mM Glutamax, 1% NEAA, 50 ng/mL plasmocin, 400 μg/mL G418 at 37° C. under 5% CO2 in a humidified atmosphere.
(§3) For FLIPR assay, ChanTest hAT1R cells were trypsinized with 6 ml of Trypsin EDTA solution and harvested in phenol-red free DMEM containing 10% FBS-HI, 4 mM Glutamax and counted, spun down and resuspended in the same medium. The cell suspension was added to the wells of 384-well black PDL clear bottom plates at 2.5×10^4 cells/well, 20 μl/well.
(§4) Preparation of Loading Buffer:
(§5) • Loading Buffer: 1 vial of Calcium 5 Bulk Assay reagent was dissolved in 100 ml of 1× HBSS-20 mM Hepes buffer. • Probenecid was resuspended at 1 M in 1 M NaOH. Once the probenecid had gone into solution, an equal volume of H2O was added to make a solution of 500 mM followed by a 1:100 dilution in the Loading Buffer for a working concentration of 5 mM. The pH was adjusted to 7.4 using 1 M NaOH. Loading the Cells with Loading Buffer • Cell plates were removed from the incubator and 25 μl of Loading Buffer containing probenecid (5 mM) added to each well. • Plates were incubated for 1 hour at 37° C. under 5% CO2 in a humidified atmosphere. […] The remaining steps of the assay were carried forward by FLIPR Tetra. A baseline reading was taken at 1-second (s) intervals for 10 s followed by the addition of 5 μl of 10× compounds. The compound-induced fluorescence signal was then measured for 3 minutes with readings taken at 1-s intervals. • The cell plate was removed from the FLIPR and set aside for an additional 17 minutes. • The cell plate was then transferred back to the FLIPR Tetra, along with the 384 well Angiotensin II agonist dilution plate. A baseline reading was taken at 1-second (s) intervals for 10 seconds, followed by the addition of 5.5 μl of 10× Angiotensin II agonist. The agonist-induced fluorescence signal was then measured for 3 minutes with readings taken at 1-s intervals. • Overall, each well in the FLIPR assay was composed of the following components in a total volume of 55.5 μl:
(§6) Time-course results from the FLIPR Calcium 5 assay were expressed as relative fluorescence light units (RFU). The maximum minus minimum values (Max−Min) were used to quantify the strength of the signal. Mean RFU were calculated from replicate values and plotted on the y-axis versus compound concentration on a logarithmic scale on the x-axis, and a single-binding site, four parameter concentration response model: (MIN+((MAX−MIN)/(1+((EC50/x)^Hill)))), was used to perform non-linear regression analysis, generating concentration response curves. Reported parameters included agonist potency EC50 (the concentration causing half-maximal agonist response), antagonist potency IC50 (the concentration causing half-maximal inhibition of the agonist response for antagonist compounds) and efficacy (% MPE: percent of the maximal possible effect).

[2] = target: T1, hAT1R; assay: FLIPR calcium flux assay, Part I: agonist activity; type: cell-based; details: ChanTest hAT1R stable cells; % MPE, percent of the maximal possible effect; read-out: hAT1R Agonist Efficacy Agonist (%) Ave
Protocol: as §1, §2, §3, §4, §5, §6

SMILES: CNCC(=O)N[C@@H](CCCNC(=N)N)C(=O)N[C@H](C(=O)N[C@@H](Cc1ccc(O)cc1)C(=O)N[C@H](C(=O)N[C@@H](Cc1c[nH]cn1)C(=O)N1CCC[C@H]1C(=O)N[C@H](Cc1ccccc1C)C(=O)O)C1CCCCC1)C(C)C [Compound 27, Sar-Arg-Val-Tyr-Chg-His-Pro-(D-Phe(2-Me))—OH] (HELM PEPTIDE1{[Sar].R.V.Y.[O=C([C@@H](N[*:1])C1CCCCC1)[*:2]].H.P.[Cc1ccccc1C[C@@H](N[*:1])C(=O)O]}$$$$V2.0)
- Emax [1]: 100%
- IC50 [1]: 14.5 nM
- Emax [2]: 8%

SMILES: CNCC(=O)N[C@@H](CCCNC(=N)N)C(=O)N[C@H](C(=O)N[C@@H](Cc1ccc(O)cc1)C(=O)N[C@H](C(=O)N[C@@H](Cc1c[nH]cn1)C(=O)N1CCC[C@H]1C(=O)N[C@H](Cc1ccccc1C(F)(F)F)C(=O)O)C(C)C)C(C)C [Compound 3, Sar-Arg-Val-Tyr-Val-His-Pro-(D-Phe(2-CF3))—OH] (HELM PEPTIDE1{[Sar].R.V.Y.V.H.P.[O=C(O)[C@@H](Cc1ccccc1C(F)(F)F)N[*:1]]}$$$$V2.0)
- Emax [1]: 99%
- IC50 [1]: 23.6 nM
- Emax [2]: 5%

SMILES: Cc1ccccc1C[C@@H](NC(=O)[C@@H]1CCCN1C(=O)[C@H](Cc1c[nH]cn1)NC(=O)[C@@H](NC(=O)[C@H](Cc1ccc(O)cc1)NC(=O)[C@@H](NC(=O)[C@H](CCCNC(=N)N)NC(=O)CNC[C@H](O)[C@@H](O)[C@H](O)[C@H](O)CO)C(C)C)C1CCCC1)C(=O)O [Compound 44, Glac-Arg-Val-Tyr-Cpg-His-Pro-(D-Phe(2-Me))—OH] (H-[X1]RVY[Gly(cPent)]HP[dPhe(2-Me)]-OH)
- Emax [1]: 101%
- IC50 [1]: 20.4 nM
- Emax [2]: 7%

SMILES: CNCC(=O)N[C@@H](CCCNC(=N)N)C(=O)N[C@H](C(=O)N[C@@H](Cc1ccc(O)cc1)C(=O)N[C@H](C(=O)N[C@@H](Cc1c[nH]cn1)C(=O)N1CCC[C@H]1C(=O)N[C@H](Cc1ccccc1C#N)C(=O)O)C(C)C)C(C)C [Compound 5, Sar-Arg-Val-Tyr-Val-His-Pro-(D-Phe(2-CN))—OH] (HELM PEPTIDE1{[Sar].R.V.Y.V.H.P.[N#Cc1ccccc1C[C@@H](N[*:1])C(=O)O]}$$$$V2.0)
- Emax [1]: 100%
- IC50 [1]: 59.6 nM
- Emax [2]: 5%

SMILES: CNCC(=O)N[C@@H](CCCNC(=N)N)C(=O)N[C@H](C(=O)N[C@@H](Cc1ccc(O)cc1)C(=O)N[C@H](C(=O)N[C@@H](Cc1c[nH]cn1)C(=O)N1CCC[C@H]1C(=O)N[C@H](Cc1ccccc1Br)C(=O)O)C(C)C)C(C)C [Compound 11, Sar-Arg-Val-Tyr-Val-His-Pro-(D-Phe(2-Br))—OH] (HELM PEPTIDE1{[Sar].R.V.Y.V.H.P.[O=C(O)[C@@H](Cc1ccccc1Br)N[*:1]]}$$$$V2.0)
- Emax [1]: 99%
- IC50 [1]: 8.7 nM
- Emax [2]: 4%

SMILES: CC(C)[C@H](NC(=O)[C@H](CCCNC(=N)N)NC(=O)CNC[C@H](O)[C@@H](O)[C@H](O)[C@H](O)CO)C(=O)N[C@@H](Cc1ccc(O)cc1)C(=O)N[C@H](C(=O)N[C@@H](Cc1c[nH]cn1)C(=O)N1CCC[C@H]1C(=O)N[C@H](Cc1ccccc1-c1ccccc1)C(=O)O)C1CCCCC1 [Compound 42, Glac-Arg-Val-Tyr-Chg-His-Pro-(D-Phe(2-Ph))—OH] (H-[X1]RVY[Chg]HP[dPhe(2-Ph)]-OH)
- Emax [1]: 101%
- IC50 [1]: 28.5 nM
- Emax [2]: 10%

SMILES: CNCC(=O)N[C@@H](CCCNC(=N)N)C(=O)N[C@H](C(=O)N[C@@H](Cc1ccc(O)cc1)C(=O)N[C@H](C(=O)N[C@@H](Cc1c[nH]cn1)C(=O)N1CCC[C@H]1C(=O)N[C@H](Cc1ccccc1-c1ccccc1)C(=O)O)C(C)C)C(C)C [Compound 6, Sar-Arg-Val-Tyr-Val-His-Pro-(D-Phe(2-Ph))—OH] (HELM PEPTIDE1{[Sar].R.V.Y.V.H.P.[O=C(O)[C@@H](Cc1ccccc1-c1ccccc1)N[*:1]]}$$$$V2.0)
- Emax [1]: 99%
- IC50 [1]: 16.6 nM
- Emax [2]: 10%

SMILES: CNCC(=O)N[C@@H](CCCNC(=N)N)C(=O)N[C@H](C(=O)N[C@@H](Cc1ccc(O)cc1)C(=O)N[C@H](C(=O)N[C@@H](Cc1c[nH]cn1)C(=O)N1CCC[C@H]1C(=O)N[C@H](Cc1ccccc1-c1ccccc1)C(=O)O)C1CCCCC1)C(C)C [Compound 36, Sar-Arg-Val-Tyr-Chg-His-Pro-(D-Phe(2-Ph))—OH] (HELM PEPTIDE1{[Sar].R.V.Y.[O=C([C@@H](N[*:1])C1CCCCC1)[*:2]].H.P.[O=C(O)[C@@H](Cc1ccccc1-c1ccccc1)N[*:1]]}$$$$V2.0)
- Emax [1]: 100%
- IC50 [1]: 26 nM
- Emax [2]: 13%

SMILES: CC(C)[C@H](NC(=O)[C@H](CCCNC(=N)N)NC(=O)CNC[C@H](O)[C@@H](O)[C@H](O)[C@H](O)CO)C(=O)N[C@@H](Cc1ccc(O)cc1)C(=O)N[C@H](C(=O)N[C@@H](Cc1c[nH]cn1)C(=O)N1CCC[C@H]1C(=O)N[C@H](Cc1cccc2ccccc12)C(=O)O)C(C)C [Compound 37, Glac-Arg-Val-Tyr-Val-His-Pro-(D-1Nal)-OH] (HELM PEPTIDE1{[O=C(CNC[C@H](O)[C@@H](O)[C@H](O)[C@H](O)CO)[*:2]].R.V.Y.V.H.P.[O=C(O)[C@@H](Cc1cccc2ccccc12)N[*:1]]}$$$$V2.0)
- Emax [1]: 99%
- IC50 [1]: 19.5 nM
- Emax [2]: 7%

SMILES: CCCCC(=O)N(Cc1ccc(-c2ccccc2-c2nnn[nH]2)cc1)[C@H](C(=O)O)C(C)C [Ref. Cpd. 4, Valsartan, reference compound]
- Emax [1]: 100%
- Emax [2]: 0.7%

SMILES: CNCC(=O)N[C@@H](CCCNC(=N)N)C(=O)N[C@H](C(=O)N[C@@H](Cc1ccc(O)cc1)C(=O)N[C@H](C(=O)N[C@@H](Cc1c[nH]cn1)C(=O)N1CCC[C@H]1C(=O)N[C@H](Cc1c(C)cccc1C)C(=O)O)C(C)C)C(C)C [Compound 8, Sar-Arg-Val-Tyr-Val-His-Pro-(D-Phe(2,6-diMe))—OH] (HELM PEPTIDE1{[Sar].R.V.Y.V.H.P.[Cc1cccc(C)c1C[C@@H](N[*:1])C(=O)O]}$$$$V2.0)
- Emax [1]: 101%
- IC50 [1]: 8.5 nM
- Emax [2]: 3%

SMILES: CNCC(=O)N[C@@H](CCCNC(=N)N)C(=O)N[C@H](C(=O)N[C@@H](Cc1ccc(O)cc1)C(=O)N[C@H](C(=O)N[C@@H](Cc1c[nH]cn1)C(=O)N1CCC[C@H]1C(=O)N[C@H](Cc1csc2ccccc12)C(=O)O)C(C)C)C(C)C [Compound 10, Sar-Arg-Val-Tyr-Val-His-Pro-(D-(3-benzothienyl)alanine)-OH] (HELM PEPTIDE1{[Sar].R.V.Y.V.H.P.[O=C(O)[C@@H](Cc1csc2ccccc12)N[*:1]]}$$$$V2.0)
- Emax [1]: 99%
- IC50 [1]: 9.5 nM
- Emax [2]: 5%

SMILES: CNCC(=O)N[C@@H](CCCNC(=N)N)C(=O)N[C@H](C(=O)N[C@@H](Cc1ccc(O)cc1)C(=O)N[C@@H](Cc1ccc(N)cc1)C(=O)N[C@@H](Cc1c[nH]cn1)C(=O)N1CCC[C@H]1C(=O)N[C@H](Cc1cccc2ccccc12)C(=O)O)C(C)C [Compound 13, Sar-Arg-Val-Tyr-Aph-His-Pro-(D-1Nal)-OH] (HELM PEPTIDE1{[Sar].R.V.Y.[Nc1ccc(C[C@H](N[*:1])C(=O)[*:2])cc1].H.P.[O=C(O)[C@@H](Cc1cccc2ccccc12)N[*:1]]}$$$$V2.0)
- Emax [1]: 100%
- IC50 [1]: 3.2 nM
- Emax [2]: 7%
